Experimental data from patent publication US9539176B2 (BAYER PHARMA AKTIENGESELLSCHAFT, priority 2012, dated 2017).

Assay: comparative stress test of the active coating suspension (60° C., 48 hours, HPLC)
Format: physicochemical
Procedure: The chemical stability of the coating suspension was verified by a comparative stress test: micronized candersartan cilexetil as a solid, an aqueous suspension of micronized candesartan cilexetil, and aqueous suspensions of micronized candesartan cilexetil together with Opadry II 85F19250 Clear in three different ratios were stored at 60° C. for 48 hours. The percentage of the stability indicating impurity Desethyl-Candesartan cilexetil was determined via HPLC. The same batch of micronized candesartan cilexetil has been used for all samples.

For `CCOc1nc2cccc(C(=O)OC(C)OC(=O)OC3CCCCC3)c2n1Cc1ccc(-c2ccccc2-c2nnn[nH]2)cc1` (centres unmarked) [micronized candesartan cilexetil (solid), candesartan cilexetil], the “Desethyl-Candesartan cilexetil, start” value (start, before storage) was 0.11% and the “Desethyl-Candesartan cilexetil, 48 hours” value (stored at 60° C. for 48 hours) was 0.41%.
